Laboratory results as given in patent US6346633B1, “Anti-tumuor agents” (AstraZeneca AB, priority 1998, dated 2002).

Legend:
[1] = tested on: T18 murine breast cancer cells; assay: Test (b): growth inhibition of T18 cells in culture under oxic conditions (MTT endpoint); format: cell-based; conditions: Mus musculus, 2 hours treatment, 90% air and 10% CO2, grown on for 6 days
Method: (b) An in vitro assay which determines the ability of a test compound to inhibit the growth of T18 murine breast cancer cells in cell culture under oxic conditions. The cells were grown in monolayer in 96 well plates and treated with compounds for 2 hours under an atmosphere of 90% air and 10% CO2. The cells were then grown on for 6 days at which time the extent of proliferation was assessed using a 3-(4,5-dimethylthiazol-2-yl)-2,5-diphenyltetrazolium bromide (MTT) endpoint. The test is similar to that described in J. Immunological Methods, 1983, 65, 55-63. The detailed methodology was as follows.
T18 murine breast tumour cells (derived from a spontaneous mammary tumour in the Balb/c mouse colony at Zeneca Pharmaceuticals, Mereside, Macclesfield, UK) were harvested from an exponentially growing monolayer culture. The cells were counted, diluted in RPMI 1640 culture medium (Gibco BRL, Life Technologies, Paisley, UK; supplemented with 15% foetal calf serum, glutamine, pyruvate, penicillin and streptomycin), and transferred to 96 well plates at 500 cells per 50 μl per well. […] The supernatant culture medium containing excess MTT was removed and DMSO (100 μl) was added to solubilise the formazan, the concentration of which was measured by determining the optical density at 540 nm. […]

[2] = tested on: spheroidal aggregates of EMT6 murine breast cancer cells; assay: Test (c): growth inhibition of spheroidal aggregates of EMT6 cells in oxygenated culture medium; format: cell-based; conditions: Mus musculus, 2 hours treatment, stasis of spheroid growth during 2-3 weeks, read-out: stasis ED50
Method: (c) An in vitro assay which determines the ability of a test compound to inhibit the growth in an oxygenated culture medium of spheroidal aggregates (˜400 microns in diameter) of EMT6 murine breast cancer cells. As the oxygen diffusion distance through tissue is approximately 120-150 microns, such spheroids have a chronically hypoxic central population of cells and a well oxygenated outer layer of cells. The multicellular spheroids were treated with test compounds for 2 hours as a well oxygenated suspension culture. The spheroids were subsequently washed free of test compound and selected spheroids were transferred to static culture so that the effect of treatment on volume growth could be measured. […]
EMT6 murine breast cells (obtained from P. R. Twentyman, MRC Oncology and Radiotherapeutics Unit, Cambridge, UK) were harvested from exponentially growing monolayer cultures and approximately 1×10^6 cells were used to inoculate a 500 ml spinner culture vessel containing Eagles minimal essential medium (200 ml; supplemented with 10% foetal calf serum, glutamate, non-essential amino acids, penicillin and streptomycin). […] The area of each spheroid was measured using an image analyser and the 24-well plates were transferred to a CO2 incubator at 37° C. The spheroids were then re-measured every 2-3 days for up to 21 days, with fresh culture medium (250 μl) being added to each well every 3 days. […]

[3] = tested on: T18 murine breast tumours; assay: Test (d): in vivo growth delay of T18 tumours; design: species or system Balb/c mice; conditions: single dose of approximately 50 mg/kg intraperitoneally
Source text: (d) An in vivo assay in a group of Balb/c mice which determines the ability of a test compound to delay the growth of T18 murine breast tumours. The detailed methodology was as follows:
T18 murine breast tumour tissue was routinely maintained by animal to animal passage. To prepare a batch of tumours for an experiment, tumour tissue was removed from several donor Balb/c mice and placed in saline. Outer tissue was removed and healthy looking regions of tumour were cut into approximately 1 mm pieces and implanted subcutaneously by trocar into the left flanks of anaesthetised female Balb/c mice. After 2-3 weeks, most of the implants had grown to approximately 8 mm in diameter. The animals were placed randomly into groups of 6-7, rejecting any with very large, or small, tumours. Each test compound was dissolved in DMSO and diluted with Cremophor EL followed by saline, to give a 1:1:3 mixture of DMSO, Cremophor EL and saline. Each test compound was administered by the intraperitoneal route as a single bolus dose (0.1 ml per 10 g body weight of each animal). Control animals received vehicle alone. All mice were weighed daily and the dimensions (length and width) of each tumour were measured every 2-3 days using vernier calipers. […] Growth curves were constructed and the effect of treatment was assessed using a growth delay endpoint.

SMILES: COCCC1=C(C)C(=O)C(C)=C(C(C)(C)CC(=O)Oc2ccc(N(CCCl)CCCl)cc2)C1=O [Example 2, 4-[bis(2-chloroethyl)amino]phenyl 3-[2-(2-methoxyethyl)-3,5-dimethyl-1,4-benzoquinonyl]-3-methylbutyrate]
- IC50 [1]: 4.8 µM
- EC50 [2]: ~6 µM
- growth delay [3]: approximately 12 days
